Patent US20150031572A1, “MEANS AND METHODS FOR ASSESSING NEURONAL TOXICITY” (priority 2012, published 2015)
Structures can show the parent of a compound that is named as a salt. Marks after values point to notes of the source that are not given here.

Experiment: Plasma metabolite profiling (GC-MS, LC-MS, SPE-LC-MS) of rats dosed once daily over 28 days; treatment ratios versus untreated control
Assay type: in vivo, rat
Conditions: for DAG (C18:1,C18:2), ratio versus control / Serotonin (5-HT), ratio versus control: Table 8b; for 5-Oxoproline, plasma metabolite ratio versus control / Alanine, plasma metabolite ratio versus control / Arginine (second line of the table), plasma metabolite ratio versus control / Arginine, plasma metabolite ratio versus control / Citrulline, plasma metabolite ratio versus control / Glutamine, plasma metabolite ratio versus control / Proline, plasma metabolite ratio versus control / Tyrosine, plasma metabolite ratio versus control: high dose
Method: A group of each 5 male and female rats was dosed once daily with the indicated compounds (see Table 10, below for compounds, applied doses and administration details) over 28 days.
Each dose group in the studies consisted of five rats per sex. Additional groups of each 5 male and female animals served as controls. Before starting the treatment period, animals, which were 62-64 days old when supplied, were acclimatized to the housing and environmental conditions for 7 days. All animals of the animal population were kept under the same constant temperature (20-24±3° C.) and the same constant humidity (30-70%). The animals of the animal population were fed ad libitum. The food to be used was essentially free of chemical or microbial contaminants. Drinking water was also offered ad libitum. Accordingly, the water was free of chemical and microbial contaminants as laid down in the European Drinking Water Directive 98/83/EG. The illumination period was 12 hours light followed by 12 hours darkness (12 hours light, from 6:00 to 18:00, and 12 hours darkness, from 18:00 to 6:00). […] The test substances (compounds) in the Tables 1 to 9 below were dosed and administered as described in the Table 10 above.
In the morning of day 7, 14, and 28, blood was taken from the retro-orbital venous plexus from fasted anaesthetized animals. From each animal, 1 ml of blood was collected with EDTA as anticoagulant. The samples were centrifuged for generation of plasma. All plasma samples were covered with a N2 atmosphere and then stored at −80° C. until analysis.
For mass spectrometry-based metabolite profiling analyses plasma samples were extracted and a polar and a non-polar (lipid) fraction was obtained. For GC-MS analysis, the non-polar fraction was treated with methanol under acidic conditions to yield the fatty acid methyl esters. Both fractions were further derivatised with O-methyl-hydroxyamine hydrochloride and pyridine to convert Oxogroups to O-methyloximes and subsequently with a silylating agent before analysis. In LC-MS analysis, both fractions were reconstituted in appropriate solvent mixtures. HPLC was performed by gradient elution on reversed phase separation columns. Mass spectrometric detection which allows target and high sensitivity MRM (Multiple Reaction Monitoring) profiling in parallel to a full screen analysis was applied as described in WO2003073464.
Steroids and their metabolites were measured by online SPE-LC-MS (Solid phase extraction-LC-MS).
Following comprehensive analytical validation steps, the data for each analyte were normalized against data from pool samples. These samples were run in parallel through the whole process to account for process variability. The significance of treatment group values specific for sex, treatment duration and metabolite was determined by comparing means of the treated groups to the means of the respective untreated control groups using WELCH-test and quantified with treatment ratios versus control and p-values.
The identification of the most important biomarkers per toxicity pattern was done by a ranking of the analytes in the tables below. Therefore the metabolic changes in reference treatments of a given pattern (shown in the table) were compared with changes of the same metabolite in other unrelated treatments. […] The maximum absolute value of the respective TVALUE was taken to indicate the most important metabolite for the pattern.

[1] = plasma, male rats, day 7, high dose, Table 8a
[2] = plasma, male rats, day 7, high dose
[3] = plasma, male rats, day 14, high dose, Table 8a
[4] = plasma, male rats, day 14, high dose
[5] = plasma, male rats, day 28, high dose, Table 8a
[6] = plasma, male rats, day 28, high dose
[7] = plasma, female rats, day 7, high dose, Table 4a
[8] = plasma, female rats, day 7, high dose, Table 4b
[9] = plasma, female rats, day 14, high dose, Table 4a
[10] = plasma, female rats, day 14, high dose, Table 4b
[11] = plasma, female rats, day 28, high dose, Table 4a
[12] = plasma, female rats, day 28, high dose, Table 4b
[13] = plasma, female rats, day 7, high dose, Table 9a
[14] = plasma, female rats, day 7, high dose, Table 9b
[15] = plasma, female rats, day 14, high dose, Table 9a
[16] = plasma, female rats, day 14, high dose, Table 9b
[17] = plasma, female rats, day 28, high dose, Table 9a
[18] = plasma, female rats, day 28, high dose, Table 9b
[19] = plasma, male rats, day 7, high dose, Table 9c
[20] = plasma, male rats, day 7, high dose, Table 9d
[21] = plasma, male rats, day 14, high dose, Table 9c
[22] = plasma, male rats, day 14, high dose, Table 9d
[23] = plasma, male rats, day 28, high dose, Table 9c
[24] = plasma, male rats, day 28, high dose, Table 9d

CNCCC(Oc1ccc(C(F)(F)F)cc1)c1ccccc1 (stereo not drawn) [Fluoxetine hydrochloride]
Ceramide (d18:1,C24:1), ratio versus control [1]: 1.77
threo-Sphingosine, ratio versus control [1]: 1.2
DAG (C18:1,C18:2), ratio versus control [2]: 0.65*
Serotonin (5-HT), ratio versus control [2]: 0.33*
4-Hydroxysphinganine (t18:0, Phytosphingosine), total, ratio versus control [3]: 1.51*
Ceramide (d18:1,C24:1), ratio versus control [3]: 1.91*
DAG (C18:1,C18:2), ratio versus control [4]: 0.64*
Serotonin (5-HT), ratio versus control [4]: 0.07*
4-Hydroxysphinganine (t18:0, Phytosphingosine), total, ratio versus control [5]: 2.57*
Ceramide (d18:1,C24:1), ratio versus control [5]: 1.85*
threo-Sphingosine, ratio versus control [5]: 2.2*
DAG (C18:1,C18:2), ratio versus control [6]: 0.63*
Serotonin (5-HT), ratio versus control [6]: 0.28*
4-Hydroxysphinganine (t18:0, Phytosphingosine), total, ratio versus control (rat, in vivo): 1.34*
threo-Sphingosine, ratio versus control (rat, in vivo): 1.45*

CC(=O)[O-].[Tl+] [Thallium(I) acetate]
5-Oxoproline, plasma metabolite ratio versus control (male rats, day 7 (m7)): 0.92
Alanine, plasma metabolite ratio versus control (male rats, day 7 (m7)): 0.81
Arginine (second line of the table), plasma metabolite ratio versus control (male rats, day 7 (m7)): 0.90
Arginine, plasma metabolite ratio versus control (male rats, day 7 (m7)): 0.97
Citrulline, plasma metabolite ratio versus control (male rats, day 7 (m7)): 0.84
Glutamine, plasma metabolite ratio versus control (male rats, day 7 (m7)): 0.83
Proline, plasma metabolite ratio versus control (male rats, day 7 (m7)): 0.85
Tyrosine, plasma metabolite ratio versus control (male rats, day 7 (m7)): 0.82
5-Oxoproline, plasma metabolite ratio versus control (male rats, day 14 (m14)): 0.87
Alanine, plasma metabolite ratio versus control (male rats, day 14 (m14)): 0.95
Arginine (second line of the table), plasma metabolite ratio versus control (male rats, day 14 (m14)): 0.80
Arginine, plasma metabolite ratio versus control (male rats, day 14 (m14)): 0.87
Citrulline, plasma metabolite ratio versus control (male rats, day 14 (m14)): 0.84
Glutamine, plasma metabolite ratio versus control (male rats, day 14 (m14)): 0.77
Proline, plasma metabolite ratio versus control (male rats, day 14 (m14)): 0.80
Tyrosine, plasma metabolite ratio versus control (male rats, day 14 (m14)): 0.90
5-Oxoproline, plasma metabolite ratio versus control (male rats, day 28 (m28)): 0.83
Alanine, plasma metabolite ratio versus control (male rats, day 28 (m28)): 0.79
Arginine (second line of the table), plasma metabolite ratio versus control (male rats, day 28 (m28)): 0.85
Arginine, plasma metabolite ratio versus control (male rats, day 28 (m28)): 0.84
Citrulline, plasma metabolite ratio versus control (male rats, day 28 (m28)): 0.94
Glutamine, plasma metabolite ratio versus control (male rats, day 28 (m28)): 0.78
Proline, plasma metabolite ratio versus control (male rats, day 28 (m28)): 0.85
Tyrosine, plasma metabolite ratio versus control (male rats, day 28 (m28)): 0.87
Creatinine, ratio versus control (plasma, male rats, day 7, high dose, Table 12a): 1.69
Creatinine, ratio versus control (plasma, male rats, day 14, high dose, Table 12a): 1.50
Creatinine, ratio versus control (plasma, male rats, day 28, high dose, Table 12a): 1.89

CN(C)CCCN1c2ccccc2Sc2ccc(Cl)cc21 [Chlorpromazine]
Ceramide (d18:1,C24:1), ratio versus control [7]: 2.34*
Docosapentaenoic acid (C22:cis[7,10,13,16,19]5), ratio versus control [7]: 1.46
Elaidic acid (C18:trans[9]1), ratio versus control [7]: 1.46
Myristic acid (C14:0), ratio versus control [7]: 0.91
Phosphatidylcholine (C16:0,C16:0), ratio versus control [7]: 1.11*
Phosphatidylcholine (C16:1,C18:2), ratio versus control [7]: 1.38*
TAG No 07, ratio versus control [7]: 2.57*
myo-Inositol, lipid fraction, ratio versus control [7]: 1.42
Creatinine, ratio versus control [8]: 0.97
Glutamate, ratio versus control [8]: 0.83*
Glycine, ratio versus control [8]: 1.01
Lactate, ratio versus control [8]: 0.65*
Myristic acid (C14:0), ratio versus control [8]: 0.91
Uric acid, ratio versus control [8]: 0.62*
Ceramide (d18:1,C24:1), ratio versus control [9]: 1.44*
Docosapentaenoic acid (C22:cis[7,10,13,16,19]5), ratio versus control [9]: 1.17
Galactose, lipid fraction, ratio versus control [9]: 1
Myristic acid (C14:0), ratio versus control [9]: 1.04
Phosphatidylcholine (C16:0,C16:0), ratio versus control [9]: 1.3*
Phosphatidylcholine (C16:1,C18:2), ratio versus control [9]: 1.02
TAG No 07, ratio versus control [9]: 1.79
myo-Inositol, lipid fraction, ratio versus control [9]: 1.02
Creatinine, ratio versus control [10]: 0.86
Glutamate, ratio versus control [10]: 0.93*
Lactate, ratio versus control [10]: 0.97
Myristic acid (C14:0), ratio versus control [10]: 1.04
Uric acid, ratio versus control [10]: 0.84
Ceramide (d18:1,C24:1), ratio versus control [11]: 1.22
Docosapentaenoic acid (C22:cis[7,10,13,16,19]5), ratio versus control [11]: 1.18*
Elaidic acid (C18:trans[9]1), ratio versus control [11]: 0.98
Galactose, lipid fraction, ratio versus control [11]: 0.91
Myristic acid (C14:0), ratio versus control [11]: 0.89
Phosphatidylcholine (C16:0,C16:0), ratio versus control [11]: 1.14
Phosphatidylcholine (C16:1,C18:2), ratio versus control [11]: 1
TAG No 07, ratio versus control [11]: 2.1*
myo-Inositol, lipid fraction, ratio versus control [11]: 0.96
Creatinine, ratio versus control [12]: 0.84*
Glutamate, ratio versus control [12]: 1.05
Glycine, ratio versus control [12]: 1.01
Lactate, ratio versus control [12]: 0.94
Myristic acid (C14:0), ratio versus control [12]: 0.89*
Uric acid, ratio versus control [12]: 0.88
Elaidic acid (C18:trans[9]1), ratio versus control (rat, in vivo): 1.16*
Galactose, lipid fraction, ratio versus control (rat, in vivo): 1.34*
Glycine, ratio versus control (rat, in vivo): 1.06*

Cn1ncc(C(=O)c2ccc(S(C)(=O)=O)c(C3=NOCC3)c2Cl)c1O [[3-(4,5-dihydro-isoxazol-3-yl)-4-methylsulfonyl-2-chlorphenyl](5-hydroxy-1-methyl-1H-pyrazol-4-yl)methanone]
4-Hydroxyphenylpyruvate, ratio versus control [13]: 26.68*
Glycine, ratio versus control [13]: 1.37*
Phosphatidylcholine (C18:0,C18:2), ratio versus control [13]: 1.12*
Serine, ratio versus control [13]: 1.16*
TAG (C16:0,C18:2), ratio versus control [13]: 2.56*
TAG (C18:1,C18:2), ratio versus control [13]: 2.72*
TAG (C18:2,C18:2), ratio versus control [13]: 3.93*
Threonine, ratio versus control [13]: 1.16
Tyrosine, ratio versus control [13]: 16.36*
gamma-Linolenic acid (C18:cis[6,9,12]3), ratio versus control [13]: 1.44*
5-Oxoproline, ratio versus control [14]: 0.56*
Glutamine, ratio versus control [14]: 0.49*
4-Hydroxyphenylpyruvate, ratio versus control [15]: 25.92*
Glycine, ratio versus control [15]: 1.24*
Phosphatidylcholine (C18:0,C18:2), ratio versus control [15]: 1.12*
Serine, ratio versus control [15]: 1.18*
TAG (C16:0,C18:2), ratio versus control [15]: 2.2*
TAG (C18:1,C18:2), ratio versus control [15]: 2.89*
TAG (C18:2,C18:2), ratio versus control [15]: 2.47*
Threonine, ratio versus control [15]: 1.33*
Tyrosine, ratio versus control [15]: 16.29*
gamma-Linolenic acid (C18:cis[6,9,12]3), ratio versus control [15]: 1.55*
5-Oxoproline, ratio versus control [16]: 0.68*
Glutamine, ratio versus control [16]: 0.53*
4-Hydroxyphenylpyruvate, ratio versus control [17]: 24.95*
Glycine, ratio versus control [17]: 1.25*
Phosphatidylcholine (C18:0,C18:2), ratio versus control [17]: 1.11*
Serine, ratio versus control [17]: 1.14*
TAG (C16:0,C18:2), ratio versus control [17]: 2.44*
TAG (C18:1,C18:2), ratio versus control [17]: 3.2*
TAG (C18:2,C18:2), ratio versus control [17]: 2.77*
Threonine, ratio versus control [17]: 1.24*
Tyrosine, ratio versus control [17]: 12.88*
gamma-Linolenic acid (C18:cis[6,9,12]3), ratio versus control [17]: 1.77*
5-Oxoproline, ratio versus control [18]: 0.58*
Glutamine, ratio versus control [18]: 0.52*
4-Hydroxyphenylpyruvate, ratio versus control [19]: 31.22*
Lysine, ratio versus control [19]: 1.23*
Threonine, ratio versus control [19]: 1.16*
Tyrosine, ratio versus control [19]: 21.56*
5-Oxoproline, ratio versus control [20]: 0.5*
Citrulline, ratio versus control [20]: 0.73*
Glutamine, ratio versus control [20]: 0.41*
Phenylalanine, ratio versus control [20]: 0.79*
4-Hydroxyphenylpyruvate, ratio versus control [21]: 34.78*
Lysine, ratio versus control [21]: 1.32*
Threonine, ratio versus control [21]: 1.2*
Tyrosine, ratio versus control [21]: 18.22*
5-Oxoproline, ratio versus control [22]: 0.58*
Citrulline, ratio versus control [22]: 0.72*
Glutamine, ratio versus control [22]: 0.43*
Phenylalanine, ratio versus control [22]: 0.9*
4-Hydroxyphenylpyruvate, ratio versus control [23]: 25.05*
Lysine, ratio versus control [23]: 1.29*
Threonine, ratio versus control [23]: 1.5*
Tyrosine, ratio versus control [23]: 14.42*
5-Oxoproline, ratio versus control [24]: 0.54*
Citrulline, ratio versus control [24]: 0.8*
Glutamine, ratio versus control [24]: 0.41*
Phenylalanine, ratio versus control [24]: 0.82
